Laboratory results from patent US9574176B2 (priority 2012, dated 2017).

Key:
[1] = system: nerve cells differentiated from NVDCC-deficient mouse hippocampus-derived neural stem cells; type: cell-based
[2] = system: NVDCC-deficient mouse-derived neural stem cells; type: cell-based
muscarinic receptor = type: cell-based, mouse

Nc1ccncc1 [4-AP, 4-aminopyridine]
activity potential of the differentiated neurons (spike frequency) [1]: significantly increased

CC1=C(/C=C/C(C)=C/C=C/C(C)=C/C(=O)O)C(C)(C)CCC1 [ATRA, all-trans retinoic acid]
differentiation on induction [2]: most cells differentiated into MAP2 (microtubule-associated protein 2)-positive nerve cells

C[C@@H]1O[C@H](C[N+](C)(C)C)C[C@H]1O [muscarine]
reaction of differentiated neurons (calcium fluorescence) (muscarinic receptor): reacted

CN1CCCC1c1cccnc1 (centres unmarked) [nicotine]
reaction of differentiated neurons (calcium fluorescence) (nicotinic receptor): reacted

tetradotoxin [TTX]
activity potential of the differentiated neurons (spike frequency) [1]: suppressed
